We go through two compounds from paper PMC8521618 (ACS Medicinal Chemistry Letters, 2021).

Some results are limits rather than exact numbers.

One may read the Vd as the apparent volume that relates the amount in the body to the concentration in plasma or blood. A lower Vd goes with little distribution into tissue. One may read the half-life as the time needed for the level to fall by half in the phase considered.

A short description of the data set: Pharmacokinetics in mice. To be noted: for Vd: Vss, PK parameters (mouse).
[1] abbreviates: CD1, mouse, in vivo, iv, 1 mg/kg, Table 3.

With `CC(=O)N(C)C1CCN(c2cc(F)cc(NC(=O)c3cc4c(F)ccc(C)c4[nH]3)c2)C1` (stereo not drawn) [Compound 25, 4-fluoro-N-[3-fluoro-5-[3-(N-methylacetamido)pyrrolidin-1-yl]phenyl]-7-methyl-1H-indole-2-carboxamide], under setting [1], the volume of distribution (Vd) is 1.04 L/kg. Moreover, the “estimated Fa” value (mouse, 50 mpk) is listed as <0.01 (50 mpk).
In the case of `Cc1ccc(F)c2cc(C(=O)N[C@@H]3CCC[C@H](N4CC[C@H](N(C)S(C)(=O)=O)C4)C3)[nH]c12` [Compound 32], the distribution volume (Vd) under setting [1] was determined as 8.13 L/kg. The compound further had a half-life (CD1, mouse, in vivo, iv, 1 mg/kg, terminal t1/2, PK parameters (mouse), Table 3) of 3.13 h. Under “mouse, 10 mpk, 0.5% CMC/0.1% Tween80”, this compound gave a fraction absorbed of 0.6. Also, the “estimated Fa” value (mouse, 30 mpk) is on record as 0.7 (30 mpk).
